In patent US11306064B2, “Benzothia(di)azepine compounds and their use as bile acid modulators” (Albireo AB, priority 2018, dated 2022):

Experiments:
Human LBAT = target: T1, Human LBAT (Homo sapiens, UniProt Q14973); experiment: LBAT (h/m) assay: 3H-taurocholic acid uptake in human LBAT-overexpressing cells; type: cell-based; details: 0.3 μM 3H-taurocholic acid and 7.5 μM cold taurocholic acid, 20 minutes, read-out: hLBAT IC50
T1 construct: expressed in transfected cells; kept under Geneticin selection
T1 sequence (Q14973 1-349): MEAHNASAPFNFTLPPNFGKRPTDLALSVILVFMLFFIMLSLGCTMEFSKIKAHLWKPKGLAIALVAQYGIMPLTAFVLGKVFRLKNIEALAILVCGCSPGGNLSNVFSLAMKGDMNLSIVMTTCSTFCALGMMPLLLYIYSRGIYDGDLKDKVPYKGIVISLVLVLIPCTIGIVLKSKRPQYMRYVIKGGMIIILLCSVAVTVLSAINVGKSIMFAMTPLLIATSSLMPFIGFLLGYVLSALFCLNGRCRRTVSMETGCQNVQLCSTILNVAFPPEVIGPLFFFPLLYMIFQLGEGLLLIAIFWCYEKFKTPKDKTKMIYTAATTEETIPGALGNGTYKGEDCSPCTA
Summary of the method: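 LBAT-overexpressing cells, serum-free MEM-alpha, 20 min at 37° C with inhibitor (3-fold, 10-point) plus 0.3 μM 3H-taurocholic acid and cold taurocholic acid (7.5 μM human; 25 μM mouse), 0.2% DMSO. Stopped on ice, washed with 1 mM unlabelled taurocholate; uptake by scintillation counting.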

HepaRG cells = experiment: HepaRG-based assay: 3H-taurocholic acid uptake in differentiated HepaRG cells; type: cell-based; details: Homo sapiens, HepaRG, 0.3 μM 3H-taurocholic acid and 7.5 μM cold taurocholic acid, 30 minutes
Summary of the method: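 Differentiated HepaRG cells cultured 7 days post-seeding were exposed for 30 min at 37 °C to 0.3 μM 3H-taurocholic acid plus 7.5 μM cold taurocholic acid with inhibitor (3-fold dilutions, 0.2% DMSO). Uptake was stopped on ice, washed with 1 mM unlabelled taurocholic acid, and counted by scintillation.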

[1] = Bioavailability studies in mice; type: in vivo; details: mouse; C57BL/6 mice; single intravenous dose 1 mg/kg vs single oral dose 10 mg/kg; plasma LC-MS/MS
Protocol: C57BL/6 mice of 8-9 weeks old were used. For each test compound, two groups of 3 animals each were used. One group was administered a single intravenous dose of 1 mg/kg (vehicle 100% DMSO) through the tail vein and the other group was administered a single oral dose of 10 mg/kg through gavage needle. The group that was administered an oral dose was fasted overnight. Blood samples were collected after 0.083, 0.25, 0.5, 1, 2, 4, 6, 8 and 24 hours following intravenous administration, and after 0.25, 0.5, 1, 2, 4, 6, 8 and 24 hours following oral administration. Blood samples were taken from saphenous vein. 0.2% EDTA was used as the anticoagulant. The samples were analyzed by a discovery grade bioanalytical method developed for the estimation of test compound in plasma, using an LC-MS/MS system.

Work on `CCCC[C@@]1(CC)CN(c2ccccc2)c2cc(SC)c(O/C=C(\F)C(=O)O)cc2S(=O)(=O)N1C` (single isomer, unassigned) [Example 99] yielded an IC50 (Human LBAT) of 4.4 nM, an IC50 (HepaRG cells) of 325 nM and a bioavailability [1] of 20%.
